Tests used:
Conditions in all cases: 72 h
[1] = system: BV-173
Outline: (§1)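 Each of fifteen myeloid leukaemia cell lines was seeded in RPMI 1640 at a density titrated to its linear growth range. The cells were incubated for 72 h at 37 °C and 5% CO2 with compounds at five tenfold doses from 1 to 10,000 nM, in duplicate. After ATP luminescence was normalised to vehicle and to a positive control at 10 µM, four-parameter log-logistic curves were fitted. These curves gave the IC50.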

[2] = system: HEL
Outline: as §1

[3] = system: HL-60
Outline: as §1

[4] = system: K-562
Outline: as §1

[5] = system: KCL-22
Outline: as §1

[6] = system: KG-1
Outline: as §1

[7] = system: KU-812
Outline: as §1

[8] = system: LAMA-84
Outline: as §1

[9] = system: ML-2
Outline: as §1

[10] = system: MOLM-13
Outline: as §1

[11] = system: MV4-11
Outline: as §1

[12] = system: Mono-Mac-6
Outline: as §1

[13] = system: NOMO-1
Outline: as §1

[14] = system: SHI-1
Outline: as §1

[15] = system: THP-1
Outline: as §1

[16] = system: BV-173; assay: cell viability (% survival relative to DMSO control, bortezomib = 0%); higher = less cytotoxic
Outline: (§2)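 In 384-well plates pre-printed with compounds at 1, 10, 100, 1000 or 10000 nM, duplicate wells received cells from 10 AML and 5 CML lines at densities within the linear growth range. The plates stayed at 37 °C with 5% CO2 for 72 h before CellTiter-Glo luminescence was recorded. Each entry is averaged percent survival. Scaling placed vehicle at 100% and a 10 µM positive control at 0%.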

[17] = system: HEL; assay: as above
Outline: as §2

[18] = system: HL-60; assay: as above
Outline: as §2

[19] = system: K-562; assay: as above
Outline: as §2

[20] = system: KCL-22; assay: as above
Outline: as §2

[21] = system: KG-1; assay: as above
Outline: as §2

[22] = system: KU-812; assay: as above
Outline: as §2

[23] = system: LAMA-84; assay: as above
Outline: as §2

[24] = system: ML-2; assay: as above
Outline: as §2

[25] = system: MOLM-13; assay: as above
Outline: as §2

[26] = system: MV4-11; assay: as above
Outline: as §2

[27] = system: Mono-Mac-6; assay: as above
Outline: as §2

[28] = system: NOMO-1; assay: as above
Outline: as §2

[29] = system: SHI-1; assay: as above
Outline: as §2

[30] = system: THP-1; assay: as above
Outline: as §2

CC1Cc2ccccc2N1NC(=O)c1ccc(Cl)c(S(N)(=O)=O)c1 (stereo not given) [Indapamide]
Conditions | IC50 (cell viability) [µM]
[1] | > 10
[2] | > 10
[3] | > 10
[4] | > 10
[5] | > 10
[6] | > 10
[7] | > 10
[8] | > 10
[9] | > 10
[10] | > 10
[11] | > 10
[12] | > 10
[13] | > 10
[14] | > 10
[15] | > 10

cell viability [%]
Conditions | 1 nM | 10 nM | 100 nM | 1000 nM | 10000 nM
[16] | 116 | 93.9 | 95.3 | 99.7 | 91.9
[17] | 107 | 112 | 101 | 105 | 103
[18] | 87.7 | 95 | 81.6 | 93 | 102
[19] | 112 | 97.3 | 120 | 100 | 102
[20] | 89.3 | 105 | 77.6 | 102 | 105
[21] | 86.7 | 105 | 101 | 97.3 | 101
[22] | 89.8 | 111 | 95.8 | 104 | 89.7
[23] | 92.2 | 111 | 98.1 | 94.3 | 91.3
[24] | 94.1 | 98.2 | 97.5 | 93.8 | 100
[25] | 100 | 93.3 | 96.5 | 100 | 86.1
[26] | 111 | 98.4 | 102 | 97.8 | 99.4
[27] | 99.6 | 112 | 112 | 110 | 90.9
[28] | 98.2 | 103 | 101 | 101 | 102
[29] | 92.5 | 93.8 | 113 | 102 | 98
[30] | 93.5 | 105 | 93.2 | 95.4 | 97

NS(=O)(=O)c1ccc(S(=O)(=O)Nc2cccc3c(Cl)c[nH]c23)cc1 [Indisulam]
Conditions | IC50 (cell viability) [µM]
[1] | 0.856
[2] | 7
[3] | 7.32
[4] | 1.43
[5] | 1.08
[6] | 0.932
[7] | 0.54
[8] | 0.918
[9] | 0.703
[10] | 0.619
[11] | 0.128
[12] | 0.796
[13] | 1.09
[14] | 1.28
[15] | > 10

cell viability [%]
Conditions | 1 nM | 10 nM | 100 nM | 1000 nM | 10000 nM
[16] | 108 | 87.3 | 110 | 46.6 | 9.34
[17] | 103 | 98.1 | 95.8 | 95.9 | 34.7
[18] | 107 | 107 | 85.8 | 97.2 | 37.1
[19] | 113 | 101 | 89.2 | 65.4 | 36.7
[20] | 102 | 104 | 87.4 | 58.6 | 19
[21] | 139 | 129 | 173 | 50.5 | 15.5
[22] | 102 | 99.1 | 108 | 29.9 | 13.7
[23] | 94.3 | 89 | 111 | 55.2 | 21.9
[24] | 99.1 | 104 | 97.9 | 35.2 | 3.51
[25] | 122 | 102 | 97.8 | 32.6 | 7.24
[26] | 99.4 | 84.3 | 56.2 | 0.62 | 0.0378
[27] | 101 | 95.3 | 80.3 | 48.2 | 11.1
[28] | 102 | 98.4 | 105 | 63.2 | 24.8
[29] | 96.8 | 101 | 97.4 | 65.2 | 26.8
[30] | 103 | 94.5 | 112 | 94.3 | 71.1

COc1ccc2c(c1)c(CC(=O)O)c(C)n2C(=O)c1ccc(Cl)cc1 [Indomethacine]
Conditions | IC50 (cell viability) [µM]
[1] | > 10
[2] | > 10
[3] | > 10
[4] | > 10
[5] | > 10
[6] | > 10
[7] | > 10
[8] | > 10
[9] | > 10
[10] | > 10
[11] | > 10
[12] | > 10
[13] | > 10
[14] | > 10
[15] | > 10

cell viability [%]
Conditions | 1 nM | 10 nM | 100 nM | 1000 nM | 10000 nM
[16] | 89.5 | 94.1 | 105 | 112 | 81.8
[17] | 109 | 92.8 | 94.3 | 92.7 | 95.5
[18] | 124 | 104 | 100 | 84.6 | 147
[19] | 95.2 | 101 | 96 | 103 | 90.4
[20] | 113 | 84 | 96 | 110 | 102
[21] | 110 | 106 | 98 | 99.3 | 97.6
[22] | 100 | 101 | 95.6 | 96.4 | 80
[23] | 86.4 | 98.5 | 92.9 | 107 | 91.5
[24] | 108 | 98.3 | 98.4 | 90.4 | 94.1
[25] | 105 | 93.7 | 98.2 | 108 | 94.5
[26] | 86.9 | 82.1 | 102 | 95.3 | 92.2
[27] | 97.9 | 93.8 | 99.8 | 112 | 92.3
[28] | 98.3 | 107 | 100 | 110 | 95.7
[29] | 120 | 95.3 | 99 | 94.2 | 94.3
[30] | 100 | 98.8 | 105 | 110 | 97.8
